Measured values as given in patent EP4782431A1 (Suzhou Merna Therapeutics Co. Ltd, priority 2023, dated 2025).

Experiments:
HaCaT cells = test: m6A methylation level of human keratinocytes (EpiQuik m6A RNA methylation quantification kit); format: cell-based; settings: for m6A fold change: 24 hours
Experimental: HaCaT cells were cultured in DMEM culture medium containing 10% fetal bovine serum, 100 U/mL penicillin, and 100 µg/mL streptomycin. Culture dishes were placed in an incubator containing 5% CO2 for culture at 37°C for 24 hours. An equal volume of DMSO was added in control group 1, 50 nM sorafenib, capecitabine, docetaxel, and osimertinib were respectively added in control groups A, B, C, and D, and 400 nM test compounds or nicotinamide were respectively added in sample groups A1, A2, B1, B2, C1, C2, D1, and D2 after the addition of 50 nM corresponding compounds. The cells were continuously cultured for 24 hours, washed with PBS, and then collected by high-speed centrifugation. Total RNA was extracted using Trizol reagent (Sigma Aldrich), and RNA m6A methylation of a sample was quantitatively detected using an EpiQuik m6A RNA methylation quantification kit. The concentrations of positive control samples for a standard curve were 0.01 ng/µl, 0.02 ng/µl, 0.05 ng/µl, 0.1 ng/µl, 0.2 ng/µl, and 0.5 ng/µl. The absorbance at 450 nm was read using a microplate reader (Tecan GENios). A quantitative calculation formula for m6A is as follows: m6A(ng) = (absorbanceofsamplewell−absorbanceofbackroundwell)/slope of standard curve [formula] m6A(%) = m6A(ng)/RNA amount of sample(ng)*100%. [formula]

[1] = tested on: chemotherapeutic drug-induced mouse model with hand-foot syndrome; test: chemotherapeutic drug-induced mouse model with hand-foot syndrome; format: in vivo, ICR mice; settings: for infiltration of inflammatory cells / thickening of the epidermal layer and the stratum corneum in the skin tissues / swelling of the toes caused by the modeling drugs: capecitabine and docetaxel models; for infiltration of inflammatory cells / thickening of the epidermal layer and the stratum corneum in the skin tissues / expression level of cytokine IL-8 in the skin tissues of the hind limb toes of the mice / expression level of cytokine IL-6 in the skin tissues of the hind limb toes of the mice: 3% ointment topical or nicotinamide 100 mg/kg oral; for swelling of the toes caused by the modeling drugs: compound of formula (I) 3% ointment topical or nicotinamide 100 mg/kg oral, once daily 16 days; for expression level of cytokine IL-8 in the skin tissues of the hind limb toes of the mice: capecitabine model; for expression level of cytokine IL-6 in the skin tissues of the hind limb toes of the mice: docetaxel model
Text: After adaptive feeding for 7 days, SPF-grade ICR mice (male, 5-6 weeks old, with a body weight of approximately 35 g) were randomly divided into groups, including a blank control group (6 mice), a capecitabine modeling group (6 mice), a docetaxel modeling group (6 mice), a capecitabine + compound of formula (I) group (6 mice), a docetaxel + compound of formula (I) group (6 mice), a capecitabine + nicotinamide group (6 mice), and a docetaxel + nicotinamide group (6 mice). The groups were respectively administered corresponding modeling drugs by oral gavage (capecitabine at 200 mg/kg and docetaxel at 25 mg/kg) once daily; and the blank control group was administered an equivalent volume of normal saline. After administration with the chemotherapeutic drugs for 2 weeks, the ointments containing the compound of formula (I) (at a compound content of 3%) used in Example 10 were respectively applied topically in the groups, or nicotinamide was orally administered (100 mg/kg) once daily continuously for 16 days.
Measurement of the degree of swelling of toes: The degree of swelling of hind limb toes of the mice was measured using a toe swelling tester (KW-7C, Nanjing Calvin Biotechnology Co., Ltd.) before administration with the modeling drugs, after administration with the modeling drugs for 2 weeks, and before sacrifice, respectively. Before measurement, ankle joints of hind feet of the mice were marked at same positions before administration, after administration for 2 weeks, and before sacrifice. During measurement, water was properly located at the same level as the marked positions, and numerical values were recorded after becoming stable.
Pathological staining of skin tissues: Skin tissue samples were selected from hind limb toes of the mice and placed in 4% paraformaldehyde for fixation at room temperature for 4 hours. Then, the tissues were taken out and rinsed with running water for several hours. The samples were subjected to dehydration treatment with 70%, 80%, and 90% ethanol solutions, followed by treatment with a mixed solution of equal amounts of absolute alcohol and xylene for 15 minutes, and then permeabilized twice with a xylene solution for 15 minutes each time until the samples became transparent. The samples were placed in a mixture of half xylene and half paraffin for soaking for 15 minutes, and then, paraffin I and paraffin II were added for wax penetration for one hour, respectively. After embedding with paraffin, the samples were sectioned, baked, dewaxed, and hydrated. Then, the hydrated sections were placed in a hematoxylin solution (ZSGB-BIO, article No. 23041001) for staining for 3 minutes, and a differentiation solution of hydrochloric acid in ethanol was added for differentiation for 15 seconds. After rinsing with water, a Scott bluing solution (Servicebio, article No. 20230801) was added for bluing for 15 seconds. After rinsing with running water, the sections were stained with an eosin solution (Solarbio, article No. 33535) for 3 minutes, rinsed with running water, dehydrated, permeabilized, sealed, and inspected under a microscope.
Immunohistochemical staining: After baking, dewaxing, and hydration, paraffin sections of skin tissues of hind limb toes of the mice were subjected to antigen retrieval using a 0.2 M citric acid buffer solution (containing 1.534 g of citric acid, 3.1 g of sodium citrate, and 100 mL of distilled water, pH 4.7). Endogenous […] was removed using 3% hydrogen peroxide (Shandong Annjet High-Tech Disinfection Technology Co., Ltd., article No. 20290902), and the sections were incubated at room temperature for 10 minutes and then fully rinsed with a PBS buffer solution (containing 8 g of NaCl, 0.2 g of KCl, 1.44 g of Na2HPO4, and 1 M HCl, pH 7.4). The sections were permeabilized with 0.5% Triton-X-100 (AmyJet Scientific, article No. A-CSH436-100 mL), respectively permeabilized with mouse anti-IL-1β and rabbit IL-8 for 10 minutes, and not permeabilized with rabbit anti-IL-6. […]

[2] = 50 nM drug alone, relative to control group 1 (DMSO)
[3] = 400 nM after 50 nM capecitabine, relative to control group 1
[4] = 400 nM after 50 nM docetaxel, relative to control group 1
[5] = 400 nM after 50 nM osimertinib, relative to control group 1
[6] = 400 nM after 50 nM sorafenib, relative to control group 1

Structure (SMILES): CNC(=O)c1cc(Oc2ccc(NC(=O)Nc3ccc(Cl)c(C(F)(F)F)c3)cc2)ccn1 [Sorafenib, sorafenib]
- m6A fold change (HaCaT cells; [2]): 4.5 fold

Structure (SMILES): NC(=O)[C@H]1CCCc2c1[nH]c1ccc(Cl)cc21 [Compound of formula (I), (S)-6-chloro-2,3,4,9-tetrahydro-1H-carbazole-carboxamide]
- abnormal increase in the RNA m6A level of human keratinocytes caused by chemotherapeutic drugs and multikinase inhibitors (HaCaT cells; 400 nM): effectively inhibit
- m6A fold change (HaCaT cells; [3]): 1.1 fold
- m6A fold change (HaCaT cells; [4]): 1.0 fold
- m6A fold change (HaCaT cells; [5]): 1.2 fold
- m6A fold change (HaCaT cells; [6]): 1.4 fold
- infiltration of inflammatory cells [1]: no infiltration of inflammatory cells observed
- thickening of the epidermal layer and the stratum corneum in the skin tissues [1]: effectively alleviate
- swelling of the toes caused by the modeling drugs [1]: significantly alleviate
- expression level of cytokine IL-8 in the skin tissues of the hind limb toes of the mice [1]: significantly decrease
- expression level of cytokine IL-6 in the skin tissues of the hind limb toes of the mice [1]: significantly decrease

Structure (SMILES): NC(=O)c1cccnc1 [Nicotinamide, nicotinamide]
- m6A fold change (HaCaT cells; [3]): 4.5 fold
- m6A fold change (HaCaT cells; [4]): 5.4 fold
- m6A fold change (HaCaT cells; [5]): 5.0 fold
- m6A fold change (HaCaT cells; [6]): 4.7 fold
- infiltration of inflammatory cells [1]: infiltration of inflammatory cells still observed
- thickening of the epidermal layer and the stratum corneum in the skin tissues [1]: mildly alleviated
- swelling of the toes caused by the modeling drugs [1]: not observed that oral administration of nicotinamide at 100 mg/kg significantly alleviated the swelling
- expression level of cytokine IL-8 in the skin tissues of the hind limb toes of the mice [1]: didn't have a significant impact
- expression level of cytokine IL-6 in the skin tissues of the hind limb toes of the mice [1]: didn't have a significant impact

Structure (SMILES): C=CC(=O)Nc1cc(Nc2nccc(-c3cn(C)c4ccccc34)n2)c(OC)cc1N(C)CCN(C)C [Osimertinib, osimertinib]
- m6A fold change (HaCaT cells; [2]): 4.8 fold
